Earlier results, collected in patent US20210307362A1, “Supplement for animal feed for sucking pigs” (Proviron Holding N.V., priority 2018, published 2021).

In the case of `CCCC(=O)OCC(COC(=O)CCC)OC(=O)CCC` [Glycerol tri butyrate], the solubility in water is listed as “insoluble in water”.
